Structures can show the parent of a compound that is named as a salt.
How the values were obtained:
[1] = Stability assessment by HPLC after storage; assay type: physicochemical; conditions: for HPLC analysis result, Open ACC: open state, accelerated condition (40° C., 75% RH); for HPLC analysis result, Open ACC / HPLC analysis result, Closed STR: in % (unit assumed); for HPLC analysis result, Closed STR: sealed state, harsh condition, oven at 80° C.
Procedure: About 10-30 mg of the sample was stored for 4 weeks in an open state under the accelerated condition (40° C., 75% RH) or in a sealed state under the harsh condition in an oven at 80° C.

[2] = Thermogravimetric analysis (TGA); assay type: physicochemical; conditions: heated from 30° C. to 350° C. at 10° C./min; no weight loss in the DSC endothermic section
Procedure: The TGA was measured using Mettler Toledo TGA/DSC 1 module. About 4-8 mg of the sample is weighed and put into a 100 μL Al crucible (flat-bottomed aluminum crucibles). Then, TGA measurement is performed while the sample is heated from 30° C. to 350° C. at a rate of 10° C./min. During the measurement, nitrogen gas is supplied to the inside of the instrument at a rate of 80 mL/min to prevent the inflow of oxygen and other gases. Data collection and evaluation were performed using the software STARe.

chemical stability to heat and humidity ([1]; 4 weeks under the accelerated condition (40° C., 75% RH) and the harsh condition (80° C.)): showed chemical stability for 4 weeks | HPLC analysis result, Open ACC ([1]; Week 2): 97.67 | HPLC analysis result, Closed STR ([1]; Week 2): 97.73 | HPLC analysis result, Open ACC ([1]; Week 4): 97.82 | HPLC analysis result, Closed STR ([1]; Week 4): 97.94 | HPLC analysis result, Initial ([1]; initial, before storage): 97.7% | thermal stability [2]: thermally stable crystalline form
Structure (SMILES): CC(C)C(=O)N([C@H]1C[C@@H](C(=O)N2CCOCC2)N(C(=O)[C@@H]2CN(C(C)(C)C)C[C@H]2c2ccc(Cl)cc2)C1)[C@H]1CC[C@@H](C)CC1 [Example 1, N-((3S,5S)-1-((3S,4R)-1-(tert-butyl)-4-(4-chlorophenyl)pyrrolidine-3-carbonyl)-5-(morpholine-4-carbonyl)pyrrolidin-3-yl)-N-((1s,4R)-4-methylcyclohexyl) isobutyramide hydrochloride]

Source: patent US20230399321A1, “CRYSTALLINE FORM II OF MELANOCORTIN RECEPTOR AGONIST COMPOUND AND PREPARATION METHOD THEREFOR” (LG CHEM, LTD., priority 2020, published 2023)
